Drawing on patent publication US9951077B2, “Aminopyridazinone compounds as protein kinase inhibitors” (ETERNITY BIOSCIENCE INC., priority 2014, dated 2018), this text covers IC50 for 28 molecules.

This assay deals with Btk (Homo sapiens (Human), UniProt Q06187). The assay is described as follows: Btk kinase assay (ADP-Glo). It counts as biochemical. To be noted: ATP 1.2 μM, 60 minutes, room temperature; read-out: BTK enzyme IC50. On the procedure:
The Btk kinase assay was performed using a ADP-Glo Btk kinase assay kit purchased from Promega (Madison, Wis.). The assay was conducted according to the protocols provided in the assay kit. In brief, the enzyme reaction was carried out in the kinase reaction buffer containing Btk (2 ng/μl), ATP (1.2 μM), poly GT peptide (0.3 μM), DTT (40 nM), MnCl2 (1.4 mM), and 1×kinase buffer (included in the kit) in the presence or absence of the tested articles at various concentrations in 384-well plate at room temperature (22±1° C.) for 60 minutes. The final reaction volume for each reaction was 10 μl. Then, 4 μl of ADP-Glo reagent (included in the kit) was added into the reaction and the plate was further incubated for another 40 minutes to terminate the reaction and deplete the remaining ATP. Finally, 10 μl of the kinase detection reagent was added into each reaction to simultaneously convert ADP to ATP and allow the newly synthesized ATP to be measured by a plate-reading luminometer (Victor X5 2030 multilabel reader, PerkinElmer). IC50 value was calculated using appropriate programs in GraphPad Prism by plotting the logarithm of the concentration versus percent inhibition as compared with a vehicle (DMSO) control.
For orientation: ADP-Glo turns the ADP formed in a reaction into a luminescent signal.

SMILES strings stand for the structures. Some results are limits rather than exact numbers.

Sequence of Btk (Q06187 whole entry): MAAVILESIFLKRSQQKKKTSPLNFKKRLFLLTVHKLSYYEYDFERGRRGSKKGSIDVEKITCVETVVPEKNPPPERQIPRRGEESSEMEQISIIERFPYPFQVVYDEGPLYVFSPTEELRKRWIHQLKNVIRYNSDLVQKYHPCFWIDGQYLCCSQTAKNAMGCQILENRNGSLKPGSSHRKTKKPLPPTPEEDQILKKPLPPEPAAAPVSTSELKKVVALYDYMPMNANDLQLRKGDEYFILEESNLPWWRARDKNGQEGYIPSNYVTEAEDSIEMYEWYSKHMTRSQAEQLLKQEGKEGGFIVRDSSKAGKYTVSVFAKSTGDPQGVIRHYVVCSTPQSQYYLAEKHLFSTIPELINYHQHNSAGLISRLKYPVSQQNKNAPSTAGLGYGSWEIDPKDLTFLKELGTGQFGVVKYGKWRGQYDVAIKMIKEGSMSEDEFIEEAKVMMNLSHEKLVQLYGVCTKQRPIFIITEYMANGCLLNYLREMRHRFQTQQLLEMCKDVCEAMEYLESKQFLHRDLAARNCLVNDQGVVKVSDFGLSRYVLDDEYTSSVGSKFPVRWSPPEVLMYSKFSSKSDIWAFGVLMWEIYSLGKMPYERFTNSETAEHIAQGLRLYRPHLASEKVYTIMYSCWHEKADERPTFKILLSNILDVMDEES

Take `C=CC(=O)N1CCC[C@@H](n2cc(-c3ccc(Oc4ccccc4)cc3)c3c(N)n[nH]c(=O)c32)C1` [Example 1, (R)-1-(1-acryloylpiperidin-3-yl)-4-amino-3-(4-phenoxyphenyl)-1H-pyrrolo[2,3-d]pyridazin-7(6H)-one]: the half-maximal inhibitory concentration (IC50) was at most 10 nM.
With `C=CC(=O)N1CC[C@H](n2cc(-c3ccc(Oc4ccccc4)cc3)c3c(N)n[nH]c(=O)c32)C1` [Example 3, 4-amino-3-(4-phenoxyphenyl)-1-[(3S)-1-prop-2-enoylpyrrolidin-3-yl]-6H-pyrrolo[2,3-d]pyridazin-7-one], the IC50 lay in the range of 10 to 1000 nM.
The result for `C=CC(=O)N1CC[C@@H](n2cc(-c3ccc(Oc4ccccc4)cc3)c3c(N)n[nH]c(=O)c32)C1` [Example 4, 4-amino-3-(4-phenoxyphenyl)-1-[(3R)-1-prop-2-enoylpyrrolidin-3-yl]-6H-pyrrolo[2,3-d]pyridazin-7-one] reads 10 to 1000 nM; that for `C=CC(=O)N1CC(n2cc(-c3ccc(Oc4ccccc4)cc3)c3c(N)n[nH]c(=O)c32)C1` [Example 5, 4-amino-3-(4-phenoxyphenyl)-1-(1-prop-2-enoylazetidin-3-yl)-6H-pyrrolo[2,3-d]pyridazin-7-one], 10 to 1000 nM.
As for `C=CC(=O)N1CCC[C@H]1Cn1cc(-c2ccc(Oc3ccccc3)cc2)c2c(N)n[nH]c(=O)c21` [Example 6, 4-amino-3-(4-phenoxyphenyl)-1-[[(2S)-1-prop-2-enoylpyrrolidin-2-yl]methyl]-6H-pyrrolo[2,3-d]pyridazin-7-one], the IC50 lay within 10 to 1000 nM.
Then `C=CC(=O)N1CCC[C@@H]1Cn1cc(-c2ccc(Oc3ccccc3)cc2)c2c(N)n[nH]c(=O)c21` [Example 7, 4-amino-3-(4-phenoxyphenyl)-1-[[(2R)-1-prop-2-enoylpyrrolidin-2-yl]methyl]-6H-pyrrolo[2,3-d]pyridazin-7-one], with 1000 to 100000 nM; and `C=CC(=O)N1CCC(Cn2cc(-c3ccc(Oc4ccccc4)cc3)c3c(N)n[nH]c(=O)c32)C1` (stereo not shown) [Example 8, 4-amino-3-(4-phenoxyphenyl)-1-[(1-prop-2-enoylpyrrolidin-3-yl)methyl]-6H-pyrrolo[2,3-d]pyridazin-7-one], with 10 to 1000 nM.
Then `C=CC(=O)N1CCC(n2cc(-c3ccc(Oc4ccccc4)cc3)c3c(N)n[nH]c(=O)c32)CC1` [Example 9, 4-amino-3-(4-phenoxyphenyl)-1-(1-prop-2-enoyl-4-piperidyl)-6H-pyrrolo[2,3-d]pyridazin-7-one], with 1000 to 100000 nM; and `C=CC(=O)N1CCC(Cn2cc(-c3ccc(Oc4ccccc4)cc3)c3c(N)n[nH]c(=O)c32)CC1` [Example 10, 4-amino-3-(4-phenoxyphenyl)-1-[(1-prop-2-enoyl-4-piperidyl)methyl]-6H-pyrrolo[2,3-d]pyridazin-7-one], with 10 to 1000 nM; and `C=CC(=O)N1CC(Cn2cc(-c3ccc(Oc4ccccc4)cc3)c3c(N)n[nH]c(=O)c32)C1` [Example 12, 4-amino-3-(4-phenoxyphenyl)-1-[(1-prop-2-enoylazetidin-3-yl)methyl]-6H-pyrrolo[2,3-d]pyridazin-7-one], with 10 to 1000 nM.
Then `C=CC(=O)N1CCC(F)C(n2cc(-c3ccc(Oc4ccccc4)cc3)c3c(N)n[nH]c(=O)c32)C1` (stereo not shown) [Example 13, 1-(1-acryloyl-4-fluoropiperidin-3-yl)-4-amino-3-(4-phenoxyphenyl)-1H-pyrrolo[2,3-d]pyridazin-7(6H)-one], with at most 10 nM; and `C=CC(=O)N1C[C@H](n2cc(-c3ccc(Oc4ccccc4)cc3)c3c(N)n[nH]c(=O)c32)CC(F)(F)C1` [Example 14, (R)-1-(1-acryloyl-5,5-difluoropiperidin-3-yl)-4-amino-3-(4-phenoxyphenyl)-1H-pyrrolo[2,3-d]pyridazin-7(6H)-one], with at most 10 nM.
For `C=CC(=O)NC1C2CCC1CC(n1cc(-c3ccc(Oc4ccccc4)cc3)c3c(N)n[nH]c(=O)c31)C2` (stereo not shown) [Example 15, N-(3-(4-amino-7-oxo-3-(4-phenoxyphenyl)-6,7-dihydro-1H-pyrrolo[2,3-d]pyridazin-1-yl)bicyclo[3.2.1]octan-8-yl)acrylamide], the IC50 lay in the range of 10 to 1000 nM.
As for `CC(C)N(C)C/C=C/C(=O)N1CCC[C@@H](n2cc(-c3ccc(Oc4ccccc4)cc3)c3c(N)n[nH]c(=O)c32)C1` [Example 16, 4-amino-1-[(3R)-1-[(E)-4-[isopropyl(methyl)amino]but-2-enoyl]-3-piperidyl]-3-(4-phenoxyphenyl)-6H-pyrrolo[2,3-d]pyridazin-7-one], the IC50 is at most 10 nM.
For `CN(C/C=C/C(=O)N1CCC[C@@H](n2cc(-c3ccc(Oc4ccccc4)cc3)c3c(N)n[nH]c(=O)c32)C1)C(=O)OC(C)(C)C` [Example 17, tert-butyl N-[(E)-4-[(3R)-3-[4-amino-7-oxo-3-(4-phenoxyphenyl)-6H-pyrrolo[2,3-d]pyridazin-1-yl]-1-piperidyl]-4-oxo-but-2-enyl]-N-methyl-carbamate], the IC50 was in the range of 10 to 1000 nM.
For the molecule `CNC/C=C/C(=O)N1CCC[C@@H](n2cc(-c3ccc(Oc4ccccc4)cc3)c3c(N)n[nH]c(=O)c32)C1` [Example 18, 4-amino-1-[(3R)-1-[(E)-4-(methylamino)but-2-enoyl]-3-piperidyl]-3-(4-phenoxyphenyl)-6H-pyrrolo[2,3-d]pyridazin-7-one], the IC50 was at most 10 nM.
The result for `CCC(=O)N1CCCC(n2cc(-c3ccc(Oc4ccccc4)cc3)c3c(N)n[nH]c(=O)c32)C1` (stereo not shown) [Example 19, 4-amino-3-(4-phenoxyphenyl)-1-(1-propionylpiperidin-3-yl)-1H-pyrrolo[2,3-d]pyridazin-7(6H)-one] reads 10 to 1000 nM; that for `N#CN1CCC[C@@H](n2cc(-c3ccc(Oc4ccccc4)cc3)c3c(N)n[nH]c(=O)c32)C1` [Example 20, (R)-3-(4-amino-7-oxo-3-(4-phenoxyphenyl)-6,7-dihydro-1H-pyrrolo[2,3-d]pyridazin-1-yl)piperidine-1-carbonitrile], 10 to 1000 nM; that for `CC#CC(=O)N1CCCC(n2cc(-c3ccc(Oc4ccccc4)cc3)c3c(N)n[nH]c(=O)c32)C1` (stereo not shown) [Example 21, 4-amino-1-(1-(but-2-ynoyl)piperidin-3-yl)-3-(4-phenoxyphenyl)-1H-pyrrolo[2,3-d]pyridazin-7(6H)-one], 1000 to 100000 nM.
Then `Nc1n[nH]c(=O)c2c1c(-c1ccc(Oc3ccccc3)cc1)cn2[C@@H]1CCCN(C(=O)CCl)C1` [Example 22, 4-amino-1-[(3R)-1-(2-chloroacetyl)-3-piperidyl]-3-(4-phenoxyphenyl)-6H-pyrrolo[2,3-d]pyridazin-7-one], with 10 to 1000 nM; and `Nc1n[nH]c(=O)c2c1c(-c1ccc(Oc3ccccc3)cc1)cn2[C@@H]1CCCN(C(=O)C2CC2)C1` [Example 23, 4-amino-1-[(3R)-1-(cyclopropanecarbonyl)-3-piperidyl]-3-(4-phenoxyphenyl)-6H-pyrrolo[2,3-d]pyridazin-7-one], with 10 to 1000 nM.
The result for `N#CCC(=O)N1CCC[C@@H](n2cc(-c3ccc(Oc4ccccc4)cc3)c3c(N)n[nH]c(=O)c32)C1` [Example 24, 3-[(3R)-3-[4-amino-7-oxo-3-(4-phenoxyphenyl)-6H-pyrrolo[2,3-d]pyridazin-1-yl]-1-piperidyl]-3-oxo-propanenitrile] reads 10 to 1000 nM; that for `C/C=C/C(=O)N1CCC[C@@H](n2cc(-c3ccc(Oc4ccccc4)cc3)c3c(N)n[nH]c(=O)c32)C1` [Example 25, 4-amino-1-[(3R)-1-[(E)-but-2-enoyl]-3-piperidyl]-3-(4-phenoxyphenyl)-6H-pyrrolo[2,3-d]pyridazin-7-one], 10 to 1000 nM.
As to `CN(C)C/C=C/C(=O)N1CCC[C@@H](n2cc(-c3ccc(Oc4ccccc4)cc3)c3c(N)n[nH]c(=O)c32)C1` [Example 26, 4-amino-1-[(3R)-1-[(E)-4-(dimethylamino)but-2-enoyl]-3-piperidyl]-3-(4-phenoxyphenyl)-6H-pyrrolo[2,3-d]pyridazin-7-one], the IC50 was at most 10 nM.
For `CCN(CC)C/C=C/C(=O)N1CCC[C@@H](n2cc(-c3ccc(Oc4ccccc4)cc3)c3c(N)n[nH]c(=O)c32)C1` [Example 27, 4-amino-1-[(3R)-1-[(E)-4-(diethylamino)but-2-enoyl]-3-piperidyl]-3-(4-phenoxyphenyl)-6H-pyrrolo[2,3-d]pyridazin-7-one], the IC50 is at most 10 nM.
The result for `Nc1n[nH]c(=O)c2c1c(-c1ccc(Oc3ccccc3)cc1)cn2[C@@H]1CCCN(C(=O)/C=C/CNC2CC2)C1` [Example 28, 4-amino-1-[(3R)-1-[(E)-4-(cyclopropylamino)but-2-enoyl]-3-piperidyl]-3-(4-phenoxyphenyl)-6H-pyrrolo[2,3-d]pyridazin-7-one] reads at most 10 nM.
Then `CN(C/C=C/C(=O)N1CCC[C@@H](n2cc(-c3ccc(Oc4ccccc4)cc3)c3c(N)n[nH]c(=O)c32)C1)C1CC1` [Example 29, 4-amino-1-[(3R)-1-[(E)-4-(cyclopropyl(methyl)amino)but-2-enoyl]-3-piperidyl]-3-(4-phenoxyphenyl)-6H-pyrrolo[2,3-d]pyridazin-7-one], with 10 to 1000 nM; and `CCN(C/C=C/C(=O)N1CCC[C@@H](n2cc(-c3ccc(Oc4ccccc4)cc3)c3c(N)n[nH]c(=O)c32)C1)C1CC1` [Example 30, 4-amino-1-[(3R)-1-[(E)-4-[cyclopropyl(ethyl)amino]but-2-enoyl]-3-piperidyl]-3-(4-phenoxyphenyl)-6H-pyrrolo[2,3-d]pyridazin-7-one], with 10 to 1000 nM.

The IC50 is the concentration that inhibits the measured activity by half.
